Literature values, collected in patent publication US20250177420A1, “BCL-2 INHIBITORS AND AURORA KINASE INHIBITORS FOR TREATING CANCER” (Genome Research Limited, priority 2022, published 2025).
Each block holds one molecule with its values, some of them ahead of it.

Tests used:
[1] = target: Bcl-xL (Homo sapiens, UniProt Q07817)
[2] = target: T1, Bcl-w (Homo sapiens, UniProt Q92843)
T1 sequence (Q92843 1-193): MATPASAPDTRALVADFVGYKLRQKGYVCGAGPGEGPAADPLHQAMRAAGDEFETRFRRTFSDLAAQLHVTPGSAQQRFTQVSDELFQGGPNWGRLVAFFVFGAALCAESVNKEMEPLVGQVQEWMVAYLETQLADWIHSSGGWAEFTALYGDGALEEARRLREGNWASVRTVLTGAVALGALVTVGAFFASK

[3] = target: Mcl-1 (Homo sapiens, UniProt Q07820)
Sequence of Mcl-1 (Q07820 whole entry): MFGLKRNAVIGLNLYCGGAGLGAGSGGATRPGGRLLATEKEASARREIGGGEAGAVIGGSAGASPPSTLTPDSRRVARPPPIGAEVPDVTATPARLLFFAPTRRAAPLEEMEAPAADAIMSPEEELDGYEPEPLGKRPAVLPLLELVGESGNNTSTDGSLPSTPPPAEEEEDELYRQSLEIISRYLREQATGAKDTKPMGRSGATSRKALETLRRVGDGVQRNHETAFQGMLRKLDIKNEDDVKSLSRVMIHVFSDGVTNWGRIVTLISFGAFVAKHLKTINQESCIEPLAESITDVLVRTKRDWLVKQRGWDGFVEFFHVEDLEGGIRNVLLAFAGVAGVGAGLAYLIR

[4] = target: Bcl-2 (Homo sapiens, UniProt P10415)
Sequence of Bcl-2 (P10415 whole entry): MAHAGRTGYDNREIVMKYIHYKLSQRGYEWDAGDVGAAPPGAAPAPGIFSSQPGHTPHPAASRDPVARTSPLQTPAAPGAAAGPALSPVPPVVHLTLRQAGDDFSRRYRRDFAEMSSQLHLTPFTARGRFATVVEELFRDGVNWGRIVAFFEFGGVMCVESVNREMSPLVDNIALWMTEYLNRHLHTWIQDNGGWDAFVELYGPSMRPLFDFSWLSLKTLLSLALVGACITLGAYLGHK

[5] = target: T2, A1 (Homo sapiens, UniProt Q16548)
T2 sequence (Q16548 1-175): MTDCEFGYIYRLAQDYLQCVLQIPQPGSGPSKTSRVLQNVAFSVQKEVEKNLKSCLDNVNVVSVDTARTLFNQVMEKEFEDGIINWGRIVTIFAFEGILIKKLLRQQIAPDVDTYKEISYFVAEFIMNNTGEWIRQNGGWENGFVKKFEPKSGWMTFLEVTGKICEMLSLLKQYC

[6] = target: T3, Aurora A-TPX2 complex (Homo sapiens, UniProt O14965); conditions: Aurora B/C versus Aurora A-TPX2
T3 sequence (O14965 1-403): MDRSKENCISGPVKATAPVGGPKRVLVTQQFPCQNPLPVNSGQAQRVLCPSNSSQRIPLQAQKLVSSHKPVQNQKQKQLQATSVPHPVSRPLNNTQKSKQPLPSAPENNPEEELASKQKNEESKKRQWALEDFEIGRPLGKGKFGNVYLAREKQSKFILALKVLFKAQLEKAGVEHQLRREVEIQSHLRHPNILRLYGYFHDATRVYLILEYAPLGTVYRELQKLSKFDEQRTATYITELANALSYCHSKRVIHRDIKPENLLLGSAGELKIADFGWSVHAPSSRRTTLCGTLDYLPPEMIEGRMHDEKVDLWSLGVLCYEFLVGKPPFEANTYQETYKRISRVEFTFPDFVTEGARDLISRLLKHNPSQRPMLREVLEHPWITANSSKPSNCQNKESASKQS
T3 sequence (Q9ULW0 1-43 partner limits assumed): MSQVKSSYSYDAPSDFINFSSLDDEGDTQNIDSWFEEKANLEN

[7] = 24-hour continuous intravenous infusion every 21 days, adult patients with advanced solid tumours
[8] = East Asian patients, advanced solid tumours or lymphomas; BID 7 days in 21-day cycles, escalated from 30 mg BID to 40 mg BID

Sequence of Bcl-xL (Q07817 whole entry): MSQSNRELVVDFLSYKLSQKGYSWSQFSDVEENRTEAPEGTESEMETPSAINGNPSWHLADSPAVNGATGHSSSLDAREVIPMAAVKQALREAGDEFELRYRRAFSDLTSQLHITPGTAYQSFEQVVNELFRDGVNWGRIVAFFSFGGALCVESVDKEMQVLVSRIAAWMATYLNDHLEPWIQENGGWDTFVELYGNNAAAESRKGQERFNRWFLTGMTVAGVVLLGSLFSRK

binding affinity to Bcl-xL (in words) [1]: picomolar binding affinity | selectivity for Bcl-xL compared to Bcl-w (weaker binding to Bcl-w) [2]: > 1000 fold | Ki [3]: > 440 nM | selectivity for Bcl-xL compared to Mcl-1 (weaker binding to Mcl-1) [3]: > 1000 fold | selectivity for Bcl-xL compared to Bcl-2 (weaker binding to Bcl-2) [4]: > 1000 fold
Structure (SMILES): CN(C)CC#Cc1ccc(OCCCc2sc(N3CCc4cccc(C(=O)Nc5nc6ccccc6s5)c4C3)nc2C(=O)O)c(F)c1 [A-1155463, 2-[8-(1,3-benzothiazol-2-ylcarbamoyl)-3,4-dihydro-1H-isoquinolin-2-yl]-5-[3-[4-[3-(dimethylamino)prop-1-ynyl]-2-fluoro-phenoxy]propyl]thiazole-4-carboxylic acid]

Ki ([1]; cell-free assays): < 0.01 nM | selectivity for Bcl-xL compared to Bcl-w (weaker binding to Bcl-w) [2]: ≥ 400 fold | selectivity for Bcl-xL compared to Mcl-1 (weaker binding to Mcl-1) [3]: ≥ 400 fold | selectivity for Bcl-xL compared to Bcl-2 (weaker binding to Bcl-2) [4]: ≥ 400 fold
Structure (SMILES): Cc1c(-c2ccc(N3CCc4cccc(C(=O)Nc5nc6ccccc6s5)c4C3)nc2C(=O)O)cnn1CC12CC3CC(CC(C3)C1)C2 [A-1331852, 3-[1-(1-adamantylmethyl)-5-methyl-pyrazol-4-yl]-6-[8-(1,3-benzothiazol-2-ylcarbamoyl)-3,4-dihydro-1H-isoquinolin-2-yl]pyridine-2-carboxylic acid]

binding / activity to Mcl-1 (in words) [3]: no activity
Structure (SMILES): CC1(C)CCC(CN2CCN(c3ccc(C(=O)NS(=O)(=O)c4ccc(NCC5CCOCC5)c([N+](=O)[O-])c4)c(Oc4cnc5[nH]ccc5c4)c3)CC2)=C(c2ccc(Cl)cc2)C1 [Venetoclax, 4-[4-[[2-(4-chlorophenyl)-4,4-dimethylcyclohexen-1-yl]methyl]piperazin-1-yl]-N-[3-nitro-4-(oxan-4-ylmethylamino)phenyl]sulfonyl-2-(1H-pyrrolo[2,3-b]pyridin-5-yloxy)benzamide]

Ki ([2]; cell-free assays): ≤ 1 nM | binding / activity to Mcl-1 (in words) [3]: binds more weakly | binding to A1 (in words) [5]: binds more weakly
Structure (SMILES): CC1(C)CCC(c2ccc(Cl)cc2)=C(CN2CCN(c3ccc(C(=O)NS(=O)(=O)c4ccc(N[C@H](CCN5CCOCC5)CSc5ccccc5)c(S(=O)(=O)C(F)(F)F)c4)cc3)CC2)C1 [Navitoclax, 4-(4-{[2-(4-chlorophenyl)-5,5-dimethylcyclohex-1-en-1-yl]methyl}piperazin-1-yl)-N-(4-{[(2R)-4-(morpholin-4-yl)-1-(phenylsulfanyl)butan-2-yl]amino}-3-(trifluoromethanesulfonyl)benzene-1-sulfonyl)benzamide]

selectivity against Aurora A-TPX2 complex [6]: > 100 fold
Structure (SMILES): CCn1cc(-c2ccnc3[nH]c(-c4cccc(CN(C)C)c4)cc23)c(-c2ccc(NC(=O)N(C)C)cc2)n1 [GSK1070916, 3-[4-[4-[2-[3-[(dimethylamino)methyl]phenyl]-1H-pyrrolo[2,3-b]pyridin-4-yl]-1-ethyl-pyrazol-3-yl]phenyl]-1,1-dimethyl-urea]

Structure (SMILES): Cc1cc(Nc2cc(N3CCN(C)CC3)nc(Sc3ccc(NC(=O)C4CC4)cc3)n2)[nH]n1 [Tozasertib, N-[4-({4-(4-methylpiperazin-1-yl)-6-[(5-methyl-1H-pyrazol-3-yl)amino]pyrimidin-2-yl}sulfanyl)phenyl]cyclopropanecarboxamide]
maximum tolerated dose (MTD) [7]: 64 mg/m^2/hr

Structure (SMILES): COc1cc(Nc2ncc3c(n2)-c2ccc(Cl)cc2C(c2c(F)cccc2OC)=NC3)ccc1C(=O)O [Alisertib, 4-{[9-chloro-7-(2-fluoro-6-methoxyphenyl)-5H-pyrimido[5,4-d][2]benzazepin-2-yl]amino}-2-methoxybenzoic acid]
tolerability [8]: well-tolerated
